Data published in publication PMC5562305, “Impact of novel palmitoylated prolactin-releasing peptide analogs on metabolic changes in mice with diet-induced obesity” (PLoS ONE, 2017).
Starred links: 1 amine or outer side, 2 acyl side, 3 side chain; linkers in the order of their positions; H or OH if unused. Residues, ends and D or L forms follow the SMILES beside them. Groups on a side chain read outwards from the residue. *: point of attachment. TTDA(Palmitoyl) = CCCCCCCCCCCCCCCC(=O)NCCCOCCOCCOCCCN*; Suc = O=C(CCC(=O)[*:2])[*:1]

System: urinary metabolites
Experiment: NMR-based metabolomics of urine of DIO mice
Assay type: in vivo, C57BL/6 mice
Design: key to DMA, Mean / DMG, Mean / MA, Mean / TMA, Mean / acetate, Mean / allantoin, Mean / carnitine, Mean / choline, Mean / cis-aconitate, Mean / creatine+creatinine, Mean / creatine, Mean / creatinine, Mean / ethanolamine, Mean / formate, Mean / galactose, Mean / glucose, Mean / glycine, Mean / lactate, Mean / succinate, Mean / vinylacetylglycine, Mean: TSA-normalized intensity of the metabolite's representative NMR signal
Procedure: Urine samples for NMR-based metabolomics were collected prior to the start of the interventions and at the end of the experiment. For overnight urine collection (from 5 pm to 8 am), the mice were housed in individual metabolic cages (Tecniplast, Buguggiate, Italy) without access to food. Samples were collected with the addition of NaN3 and stored at -80°C until NMR analysis.
The urine samples were thawed at room temperature and centrifuged at 13 684 x g for 5 min prior to the NMR experiments. A 200-μl aliquot of supernatant was diluted with 340 μl of H2O mixed with 60 μl of phosphate buffer (1.5 M KH2PO4 in D2O containing 2 mM NaN3 and 0.1% trimethylsilyl propionic acid (TSP), pH 7.4) and transferred to a 5-mm NMR tube. The NMR data were acquired with a 600 MHz Bruker Avance III spectrometer (Bruker BioSpin, Rheinstetten, Germany) equipped with a 5-mm TCI cryogenic probe head. All of the experiments were performed at 300 K. Automatic tuning, matching, shimming and adjusting of the 90° pulse length were performed for each sample.
As mouse urine naturally contains urinary proteins, the NMR spectra were acquired using a Carr-Purcell-Meiboom-Gill (CPMG) pulse sequence with water presaturation (Bruker pulse sequence cpmgpr1d) to eliminate the strong protein background. […] For better metabolite identification, a short J-resolved experiment with presaturation (NS = 2, SW = 16 ppm, TD = 8k, number of increments = 40, SW = 78.125 Hz in the indirect dimension, and relaxation delay = 2 s) was executed for all samples. Additional two-dimensional ^1H-^1H correlation spectroscopy (COSY) and ^1H-^13C heteronuclear multiple-quantum correlation (HMQC) experiments (Bruker pulse sequences cosygpprqf and hmqcphpr) were performed for selected samples.
The acquired data were processed using Topspin 3.2 software (Bruker BioSpin, Rheinstetten, Germany). Line broadening of 0.3 Hz was applied on free induction decays (FIDs) prior to Fourier transformation. The spectra were automatically phased, baseline corrected and referenced to the signal of TSP (0.00 ppm).
The assignment of individual metabolites was achieved by comparing the proton spectra with the spectra of pure metabolites using Chenomx NMR Suite 7.6 (Chenomx Inc., Edmonton, AB, Canada), the HMDB database and previously published metabolomic data. The identification of metabolites was supported through J-resolved and COSY experiments and, if possible, confirmed using carbon chemical shifts extracted from the HMQC spectra.
For quantitation of individual metabolites, the CPMG spectra were uniformly binned in the range of 0.10–10.00 ppm to 0.01-ppm intervals using AMIX software (Bruker BioSpin, Rheinstetten, Germany). This procedure reduced the dimensionality of the data, eliminated chemical shift variations and thus simplified the reproducible automatic quantification. Regions corresponding to water (4.60–4.90 ppm) and urea (5.60–6.00 ppm) were removed prior to analysis. As the dilutions of the original urine samples differed (due to the differences in water intake during urine collection), all of the spectra were normalized to the total spectral area (TSA). For each identified metabolite, one representative signal was chosen and then quantified as the sum of appropriate adjacent 0.01-ppm bins to cover the whole signal width. The metabolite concentration was expressed as the TSA-normalized intensity of the respective signal. For selection of an appropriate statistical method (parametric or non-parametric) the Lilliefors test of normality was performed. […] Metabolite alterations with a P < 0.05 were considered statistically significant. Statistical analysis was performed using Matlab software (“MATLAB version 8.6 (R2015b). Natick, Massachusetts: The MathWorks Inc., 2015.,” n.d.). […]

[1] = urine NMR signal, DIO mice, group mean
[2] = urine of DIO mice, NMR metabolomics, difference of analog mean vs saline mean

CCCCCCCCCCCCCCCC(=O)NCCCOCCOCCOCCCNC(=O)CCC(=O)NCCCC[C@H](NC(=O)[C@@H](NC(=O)[C@H](CCC(=O)O)NC(=O)[C@H](CCSC)NC(=O)[C@H](CO)NC(=O)[C@H](Cc1c[nH]cn1)NC(=O)[C@H](CCCNC(=N)N)NC(=O)[C@H](Cc1c[nH]cn1)NC(=O)[C@@H](NC(=O)[C@H](CCCNC(=N)N)NC(=O)[C@@H](N)CO)[C@@H](C)O)[C@@H](C)CC)C(=O)N[C@H](C(=O)N1CCC[C@H]1C(=O)N[C@@H](CC(=O)O)C(=O)N[C@H](C(=O)N[C@@H](CC(N)=O)C(=O)N1CCC[C@H]1C(=O)N[C@@H](C)C(=O)N[C@@H](Cc1c[nH]c2ccccc12)C(=O)N[C@@H](Cc1ccc(O)cc1)C(=O)N[C@@H](C)C(=O)N[C@@H](CO)C(=O)N[C@@H](CCCNC(=N)N)C(=O)NCC(=O)N[C@H](C(=O)N[C@@H](CCCNC(=N)N)C(=O)N1CCC[C@H]1C(=O)N[C@H](C(=O)NCC(=O)N[C@@H](CCCNC(=N)N)C(=O)N[C@@H](Cc1ccccc1)C(N)=O)C(C)C)[C@@H](C)CC)[C@@H](C)CC)[C@@H](C)O [analog 2] (H-SRTHRHSMEIK([Suc-TTDA(Palmitoyl)])TPDINPAWYASRGIRPVGRF-NH2; N-terminus assumed)
2-OG (2.45 ppm), Mean [1]: 11.956
2-OG (3.01 ppm), Mean [1]: 10.103
2-PY (8.33 ppm), Mean [1]: 0.992
3-indoxylsulfate (7.51 ppm), Mean [1]: 1.459
3-indoxylsulfate (7.71 ppm), Mean [1]: 0.842
4-PY (7.97 ppm), Mean [1]: 1.710
4-PY (8.55 ppm), Mean [1]: 0.484
DMA, Mean [1]: 5.145
DMG, Mean [1]: 1.928
MA, Mean [1]: 2.920
MNA (8.90 ppm), Mean [1]: 0.407
MNA (8.97 ppm), Mean [1]: 0.391
MNA (9.265 ppm), Mean [1]: 0.413
MNA-Nox (7.75 ppm), Mean [1]: 0.969
MNA-Nox (8.13 ppm), Mean [1]: 0.725
MNA-Nox (8.49 ppm), Mean [1]: 0.458
MNA-Nox (8.75 ppm), Mean [1]: 0.434
N-carbamoylalanine (2.38 ppm), Mean [1]: 10.919
N-carbamoylalanine (3.31 ppm), Mean [1]: 9.060
N-isovalerylglycine + oxovalerate (0.92 ppm), Mean [1]: 15.384
TMA, Mean [1]: 10.220
acetate, Mean [1]: 4.384
allantoin, Mean [1]: 21.272
carnitine, Mean [1]: 6.113
choline, Mean [1]: 2.053
cis-aconitate, Mean [1]: 9.014
citrate (2.55 ppm), Mean [1]: 31.737
citrate (2.69 ppm), Mean [1]: 28.801
creatine+creatinine, Mean [1]: 23.782
creatine, Mean [1]: 6.742
creatinine, Mean [1]: 11.494
ethanolamine, Mean [1]: 7.749
formate, Mean [1]: 0.205
fumarate, Mean [1]: 0.167
galactose, Mean [1]: 0.806
glucose, Mean [1]: 3.486
glycine, Mean [1]: 6.185
hexanoylglycine + acids (0.88 ppm), Mean [1]: 15.251
hippurate (7.55 ppm), Mean [1]: 4.857
hippurate (7.64 ppm), Mean [1]: 2.465
hippurate (7.84 ppm), Mean [1]: 5.092
lactate, Mean [1]: 7.122
multiplet acids (1.6 ppm), Mean [1]: 12.357
putrescin, Mean [1]: 8.544
succinate, Mean [1]: 12.532
taurine (3.27 ppm), Mean [1]: 20.714
taurine (3.43 ppm), Mean [1]: 17.197
trigonelline (8.84 ppm), Mean [1]: 0.310
trigonelline (9.13 ppm), Mean [1]: 0.125
vinylacetylglycine, Mean [1]: 3.494
2-OG (2.45 ppm), Saline/analog % [2]: 0.017%
2-OG (3.01 ppm), Saline/analog % [2]: -0.013%
2-PY (8.33 ppm), Saline/analog % [2]: -0.147%
3-indoxylsulfate (7.51 ppm), Saline/analog % [2]: 0.120%
3-indoxylsulfate (7.71 ppm), Saline/analog % [2]: 0.094%
4-PY (7.97 ppm), Saline/analog % [2]: -0.055%
4-PY (8.55 ppm), Saline/analog % [2]: -0.165%
DMA, Saline/analog % [2]: 0.025%
N-carbamoylalanine (2.38 ppm), Saline/analog % [2]: 0.014%
N-carbamoylalanine (3.31 ppm), Saline/analog % [2]: -0.045%
N-isovalerylglycine + oxovalerate (0.92 ppm), Saline/analog % [2]: 0.062%
TMA, Saline/analog % [2]: -0.159%
acetate, Saline/analog % [2]: 0.167%
allantoin, Saline/analog % [2]: 0.054%
carnitine, Saline/analog % [2]: 0.027%
choline, Saline/analog % [2]: 0.042%
cis-aconitate, Saline/analog % [2]: 0.015%
citrate (2.55 ppm), Saline/analog % [2]: -0.026%
citrate (2.69 ppm), Saline/analog % [2]: -0.034%
creatine+creatinine, Saline/analog % [2]: 0.043%
